In patent publication US20220195056A1, “METHOD OF TREATING KELOIDS” (Icahn School of Medicine at Mount Sinai, priority 2019, published 2022):
“Also recorded” adds a separate entry of the source.

Experiments:
Format in all cases: in vivo, human
keloids = assay: Clinical keloid response to dupilumab injections in African American keloid patients
Protocol: (A) The image depicts keloids before treatment with dupilumab in a patient. (B) The image depicts keloids in a patient after 1.5 months of treatment with dupilumab (subcutaneous injections of 300 mg every week, after 600 mg induction at baseline). (C) The image depicts keloids in the same patient at the end of the third month of treatment with dupilumab.
A subject with keloids, but without other dermatological symptoms, was treated with dupilumab. The subject received 300 mg subcutaneous dupilumab injections, administered weekly.
The inventors observed a significant keloid reduction in yet a third patient treated with dupilumab. Another patient with keloids, but no other dermatological symptoms, received weekly subcutaneous injections of dupilumab (300 mg) and observed a positive response.
In addition, only the weekly injections were sufficient to maintain the size reduction and to treat the pain and irritation associated with the keloids in the afflicted patients.

keloid [1] = assay: Clinical keloid response to dupilumab in a subject with severe atopic dermatitis and two keloid nodules
Source text: (A) On the right popliteal fossa, a large depigmented keloid (denoted by the dotted arrow) measured at 3.5 cm horizontal, 2.8 cm vertical, and 2.1 cm, and a smaller adjacent keloid (denoted by the bold arrow) measured at 1.2 cm horizontal, 0.7 cm vertical, and 1.1 cm, August 2018. […] Images to scale and taken with different perspectives. Th2-specific inflammatory biomarkers (C-E) measured by quantitative real-time PCR in healthy skin and keloid non-lesional (NL) and lesional (LS) skin. Black stars: significance of comparison between keloid skin and controls. Black lines within boxes represent median values; bold red lines represent mean values. Each black dot represents an individual patient; ^+P<0.1, *P<0.05.
A subject afflicted with severe atopic dermatitis (AD) (body surface area/BSA 70%; SCORing of AD/SCORAD, 50; Eczema Area and Severity Index/EASI, 33) post-inflammatory hypopigmentation, and two keloid nodules was treated with dupilumab. […] Both nodules were present for more than 2 years. […] The subject received 300 mg subcutaneous dupilumab injections for severe AD, administered every 2 weeks for a month.

keloid [2] = assay: Prior treatment of keloid nodules with intralesional triamcinolone injections; conditions: before dupilumab
[3] = after 3 months, weekly subcutaneous 300 mg
[4] = after 3 months, weekly subcutaneous 300 mg after 600 mg induction

Molecule	change in keloid size (FIG. 3 patient) (keloids; 3 months, 300 mg subcutaneous every week after 600 mg induction at baseline)	keloid shrinkage in diameter (FIG. 5 patient) (keloids; [3]) [cm]	keloid shrinkage in height (FIG. 5 patient) (keloids; [3]) [cm]	keloid shrinkage in diameter (FIG. 4 patient) (keloids; [4]) [cm]	keloid shrinkage in height (FIG. 4 patient) (keloids; [4]) [cm]	efficacy of every other week injections on keloids (keloids; injections every other week)	patients with reduction in keloid size and shape (keloids; weekly dupilumab injections, African American patients)	change in keloid size (third patient, FIG. 5) (keloids; weekly subcutaneous 300 mg)	outcome of the smaller adjacent keloid (keloid [1]; after dupilumab treatment (seven months), before treatment 1.2 cm horizontal, 0.7 cm vertical, 1.1 cm)	larger keloid nodule size, third (unnamed) dimension, after dupilumab (keloid [1]; post-treatment, before treatment 2.1 cm) [cm]	larger keloid nodule size, vertical, after dupilumab (keloid [1]; post-treatment, before treatment 2.8 cm) [cm]	larger keloid nodule size, horizontal, after dupilumab (keloid [1]; post-treatment, before treatment 3.5 cm) [cm]	reduction in size of the large keloid (keloid [1]; seven months after dupilumab treatment, 300 mg subcutaneous every 2 weeks for a month, right popliteal fossa) [%]	keloid response to prior intralesional treatment (keloid [2])
dupilumab	noticeable reduction in the keloid size; also recorded: reduction in size and depth	0.8	0.5	2	0.5	insufficient to treat keloids	three of the three	noticeable reduction in the keloid size	complete disappearance	0.9	1	1.6	> 50	
C[C@]12C=CC(=O)C=C1CC[C@H]1[C@@H]3C[C@@H](O)[C@](O)(C(=O)CO)[C@@]3(C)C[C@H](O)[C@@]12F [triamcinolone]														minimal improvement
